Test results from patent publication US6780853B1, “Neuroactive steroids of the androstane and pregnane series” (priority 1995, dated 2004).
Structures can show the parent of a compound that is named as a salt.

Experiments:
[1] = target: GABA receptor complex (GRC); test: [35S]TBPS binding in rat cerebral cortex P2 homogenate; details: for IC50: concentration to inhibit 50% of control [35S]TBPS binding, 2 nM [35S]TBPS; for IMAX (maximum inhibition): maximum inhibition of [35S]TBPS binding
Description: To those skilled in the art, it is known that the modulation of [^35S]t-butylbicyclophosphorothionate ([^35S]TBPS) binding is a measure of the potency and efficacy of drugs acting at the GRC, which drugs may be of potential therapeutic value in the treatment of stress, anxiety, and seizure disorders (Squires, R. F., et al., Mol, Pharmacol., 23:326 (1983); Lawrence, L. J., et al., Biochem. Biophys. Res. Comm., 123:1130-1137 (1984); Wood, et al., Pharmacol, Exp. Ther., 231:572-576 (1984)). Several experiments were performed previously to determine the nature of the modulation of [^35S]TBPS as affected by neuroactive steroids. […] Furthermore, these compounds have high potency and efficacy at the GRC, with stringent structural requirements for such activity.
The procedures for performing this assay are fully discussed in: (1) Gee, K. W. et al., European Journal of Pharmacology, 136:419-423 (1987)); and (2) Gee, et al., Molecular Pharmacology 30:218 (1986). These procedures were performed as follows:
Brains from male Sprague-Dawley rats were removed immediately following sacrifice and the cerebral cortices dissected over ice. A P2 homogenate was prepared as previously described (Gee, et al., Molecular Pharmacology 30:218 (1986)). Briefly, the cortices were gently homogenized in 032 M sucrose followed by centrifugation at 1000×g for 10 minutes. The supernatant was collected and centrifuged at 9000×g for 20 minutes. The resultant P2 pellet was suspended as a 10% (original wet weight/volume) suspension in 50 mM Na/K phosphate buffer (pH 7.4) 200 mM NaCl to form the homogenate.
One hundred microliter […] aliquots of the P2 homogenate (0.5 milligrams (mg) protein) were incubated with 2 nanomolar (nM) [^35S]TBPS (70-110 curies/millimole; New England Nuclear, Boston, Mass.) in the presence or absence of the naturally occurring steroids or their synthetic derivatives to be tested. The tested compounds were dissolved in dimethylsulfoxide (Baker Chem. Co., Phillipsburg, N.J.) and added to the incubation mixture in 5 μL aliquots. The incubation mixture was brought to a final volume of 1 mL with buffer. Non-specific binding was defined as binding in the presence of […]. The effect and specificity of GABA (Sigma Chem. Co., St. Louis, Mo.) was evaluated by performing all assays in the presence of GABA plus (+)bicuculline (Sigma Chem. Co.). Incubations maintained at 25° C. for 90 minutes (steady state conditions) were terminated by rapid filtration through glass fiber filters (No. 32, Schleicher and Schuell, Keene, N.H.). Filter-bound radioactivity was quantitated by liquid scintillation spectrophotometry. Kinetic data and compound/[^35S]TBPS dose-response curves were analyzed by nonlinear regression using a computerized iterative procedure to obtain rate constants and IC50 (concentration of compound at which half-maximal inhibition of basal [^35S]TBPS binding occurs) values.
Various compounds were screened to determine their potential as modulators of [^35S]TBPS binding in vitro. These assays were performed in accordance with the above discussed procedures. Based on these assays, we have established the structure-activity requirements for their specific interaction at the GRC and their rank order potency and efficacy. Experimental data obtained in this assay for a number of 3α-hydroxypregnan-20-one derivatives is discussed in Gee, K. W. et al., European Journal of Pharmacology, 136:419-423 (1987) and in U.S. Pat. No. 5,232,917. Table 1 provides IC50 and maximum inhibition (IMAX) measurements for numerous compounds, including examples of compounds disclosed and claimed herein. IC50 is defined as concentration of compounds to inhibit 50% of control [^35S]TBPS binding. It is an indication of a compound's in vitro potency. Maximum inhibition is an indication of a compound's in vitro efficacy.

[2] = tested on: metrazol induced convulsions; test: Antimetrazol activity in mice; assay type: in vivo; details: 10 mg/kg
Description: Experiments were also performed to determine the physiological relevance of neuroactive steroid and GABA receptor interactions by assessing the ability of compounds of the present invention to prevent metrazol induced convulsions in mice. Mice were injected with various doses of the test compounds of the invention, 10 minutes prior to the injection of metrazol. The time to onset of myoclonus (presence of forelimb clonic activity) induced by metrazol was determined by observing each mouse for a period of 30 minutes. In control mice, metrazol (85 mg/kg) will induce convulsion in 95% of the animals.
The anticonvulsant tests are similar to that described above.

[3] = tested on: time spent on the open-arms; test: Elevated plus-maze test; assay type: in vivo, N.I.H. Swiss-Webster mice; details: IP, 50% hpbcd, 10 mg/kg
Description: The theoretical basis for the elevated plus-maze test is similar to that of the fight/dark transition test. As it was described previously by Pellow et al. J. Neurosci. Meth. 14:149-167 (1985)), the elevated plus-maze apparatus is designed to utilize the mice's natural aversion to open spaces. The apparatus consists of two open-arms and two enclosed-arms. The elevated plus-maze test allows for two measures of anxiety, the number of entries into the open-arms and the time spent on the open-arms, both expressed as a percentage of the total number of entries and time spent in/on both the open-arms and enclosed-arms.
Male N.I.H Swiss-Webster mice (Harlan, Indianapolis, Ind.) weighing 15-20 g were housed four per cage in polyethylene cages with sawdust bedding. The colony room was environmentally controlled (22° C.) with a 12 hr light/dark cycle (0600-1800 hr). Food and water were available ad libitum, except during testing. The experiments were run from 0700-1500 hr and groups were counterbalanced for time of day effects. Mice were only administered drug or vehicle once.
The method used was previously described (Lister, Psychopharmacol. 92:180-185 (1987)). The apparatus included two open arms perpendicular to two enclosed arms elevated 50 cm from the floor. Each arm was 50 cm long and the walls of the enclosed arms were 40 cm tall. The maze was made completely of black plexiglass. Incandescent 200 W light bulbs were above each of the open arms to produce a strong contrast between the open arms and the enclosed arms.
[…] Swiss-Webster mice were placed in the center of the plus-maze facing an open arm. During the 5 min test period, the number of entries onto the open arms and the enclosed arms, and the time spent in the open arms and enclosed arms were measured. All four paws had to be within an arm for the dependent variable to be measured. Therefore, the time spent in the center of the maze is not counted, so the total time spent in the open arms and the enclosed arms may not equal 5 min.

[4] = IP, 50% hpbcd, 10 min before metrazol 85 mg/kg

Compound	IC50 [1] [µM]	IMAX (maximum inhibition) [1] [%]	% Protected [2, 4] [%]	Plus-Maze (% Control), time spent on the open-arms [3] [% Control]	% Protected ([2]; PO, 10% hpbcd) [%]	% Protected ([2]; IP, 50% hpbcd, 10 min before metrazol 85 mg/kg, listed as 3α-Hydroxy-3β-(4′-hydroxybutyn-1-yl)-17β-methoxy-5β-androstane) [%]
C#CCC1(O)CCC2(C)C(CCC3C2CCC2(C)C(OC)CCC32)C1 (stereo not drawn) [3α-Hydroxy-17β-methoxy-3β-(2-propynyl)-5α-androstane]	0.387	101	12.5			
COC1CCC2C3CCC4CC(O)(C#CCCO)CCC4(C)C3CCC12C (stereo not drawn) [3α-Hydroxy-3β-(4′-hydroxybutyn-1-yl)-17α-methoxy-5β-androstane]			50			
C=C[C@@]1(O)CC[C@@]2(C)[C@@H](CC[C@@H]3[C@@H]2CC[C@]2(C)[C@@H](OC)CC[C@@H]32)C1 [3β-Ethenyl-3α-hydroxy-17β-methoxy-5α-androstane]	0.133	104		127		
COC1CCC2C3CCC4CC(O)(CCl)CCC4(C)C3CCC12C (stereo not drawn) [3β-Chloromethyl-3α-hydroxy-17β-methoxy-5α-androstane]	0.361	98	12.5			
CC12CCC(O)(C#CCCO)CC1CCC1C2CCC2(C)C(C(=O)CSc3ccncc3)CCC12 (stereo not drawn) [3α-Hydroxy-3β-(4-hydroxybutynyl)-21-(pyrid-4-ylthio)-5β-pregnan-20-one]	0.015	100	50			
CC(=O)[C@H]1CC[C@H]2[C@@H]3CC[C@H]4C[C@@H](O)CC[C@]4(C)[C@H]3CC[C@]12C [3β-Hydroxy-5α-pregnan-20-one, reference compound]	> 1000	33				
C#C[C@@]1(O)CC[C@@]2(C)[C@@H](CC[C@@H]3[C@@H]2CC[C@]2(C)[C@@H](C(=O)CSc4ccncc4)CC[C@@H]32)C1 [3β-ethynyl-3α-hydroxy-21-(pyrid-4-ylthio)-5α-pregnan-20-one]	0.043	103				
C#C[C@@]1(O)CC[C@@]2(C)[C@@H](CC[C@@H]3[C@@H]2CC[C@]2(C)[C@@H](OC)CC[C@@H]32)C1 [3β-Ethynyl-3α-hydroxy-17β-methoxy-5α-androstane]	0.122	106		129		
C[n+]1ccc(SCC(=O)C2CCC3C4CCC5CC(O)CCC5(C)C4CCC23C)cc1 (stereo not drawn) [3α-Hydroxy-21-(4′-pyridyl)thio-5β-pregnan-20-one N-methyl io] [3α-hydroxy-21-(pyrid-4-ylthio)-5β-pregnan-20-one N-methyl iodide]	0.263	53				
C[C@]12CC[C@@H](O)C[C@H]1CC[C@@H]1[C@@H]2CC[C@]2(C)[C@@H](C(=O)COc3ccncc3)CC[C@@H]12 [3α-Hydroxy-21-(pyrid-4-yloxy)-5β-pregnan-20-one]	0.045	76				
C[C@]12C[C@H](O)[C@H]3[C@@H](CCC4=CC(=O)CC[C@@]43C)[C@@H]1CC[C@@H]2C(=O)CO [4-Pregnan-11β,21-diol-3,20-dione, reference compound]	> 1000	30				
C#CCO[C@H]1CC[C@H]2[C@@H]3CC[C@H]4C[C@](C)(O)CC[C@]4(C)[C@H]3CC[C@]12C [3α-Hydroxy-3β-methyl-17β-(2-propynyloxy)-5α-androstane]	0.163	94				
COC1CCC2C3CCC4CC(O)(C(F)(F)F)CCC4(C)C3CCC12C (stereo not drawn) [3α-Hydroxy-17β-methoxy-3β-trifluoromethyl-5α-androstane]	0.341	100				
COCC1(O)CCC2(C)C(CCC3C2CCC2(C)C(C(=O)CS(=O)(=O)c4ccc(F)cc4)CCC32)C1 (stereo not drawn) [21-(4′-fluorophenyl)sulfonyl-3α-hydroxy-3β-methoxymethyl-5α-pregnan-20-one]	0.049	99				
CC1(C2CCC3C4CCC5CC(O)(C(F)(F)F)CCC5C4CCC32C)OC(C(=O)[O-])C(C(=O)[O-])O1.[K+].[K+] (stereo not drawn) [20,20-[2′,3′-Bis(carboxy)ethylenedioxy]-3α-hydroxy-3β-trifuoromethyl-5β-19-norpregnane, dipotassium salt]					25	
C#CC1(O)CCC2(C)C(CCC3C2CCC2(C)C(C(=O)CSCCOS(=O)(=O)O)CCC32)C1 (stereo not drawn) [3β-ethynyl-3α-hydroxy-21-thioethanesulfate-5β-pregnan-20-one trimethyl ammonium salt]	0.322	101				
C[n+]1cccc2cc(OCC(=O)C3CCC4C5CCC6CC(C)(O)CCC6(C)C5CCC34C)ccc21 (stereo not drawn) [3α-hydroxy-3β-methyl-21-(quinolin-6-yloxy)-5α-pregnan-20-one N-methyl iodide]	0.252	102				
C#C[C@@]1(O)CC[C@@]2(C)[C@H](CC[C@@H]3[C@@H]2CC[C@]2(C)[C@@H](C(=O)CSCCCO)CC[C@@H]32)C1 [3β-ethynyl-3α-hydroxy-21-hydroxypropylthio-5β-pregnan-20-one]	0.093	97				
C[C@]12CC[C@@H](O)C[C@H]1CC[C@@H]1[C@@H]2CC[C@]2(C)[C@@H](C(=O)CCc3ccncc3)CC[C@@H]12 [3α-Hydroxy-21-(4-pyridylmethyl)-5β-pregnan-20-one]	0.187	103				
COC1CCC2C3CCC4CC(O)(C#CCCO)CCC4(C)C3CCC12C (stereo not drawn) [3β-(4′-Hydroxybutyn-1′yl)-3α-hydroxy-17β-methoxy-5β-androsta] [3β-(4′-Hydroxy-1-′-butynyl)-3α-hydroxy-17β-methoxy-5β-androstane]	0.026	105				75
